Paper PMC10480161, “Identification of potent and selective N-myristoyltransferase inhibitors of Plasmodium vivax liver stage hypnozoites and schizonts” (Nature Communications, 2023)
Where “and” joins values, the source holds several entries; their conditions need not be identical. Identical values can stand only once.

What was measured:
HsNMT1 = target: T1, HsNMT1 (Homo sapiens, UniProt P30419); experiment: NMT activity assay (CPM detection of free CoA), HsNMT
T1 sequence (P30419 1-496): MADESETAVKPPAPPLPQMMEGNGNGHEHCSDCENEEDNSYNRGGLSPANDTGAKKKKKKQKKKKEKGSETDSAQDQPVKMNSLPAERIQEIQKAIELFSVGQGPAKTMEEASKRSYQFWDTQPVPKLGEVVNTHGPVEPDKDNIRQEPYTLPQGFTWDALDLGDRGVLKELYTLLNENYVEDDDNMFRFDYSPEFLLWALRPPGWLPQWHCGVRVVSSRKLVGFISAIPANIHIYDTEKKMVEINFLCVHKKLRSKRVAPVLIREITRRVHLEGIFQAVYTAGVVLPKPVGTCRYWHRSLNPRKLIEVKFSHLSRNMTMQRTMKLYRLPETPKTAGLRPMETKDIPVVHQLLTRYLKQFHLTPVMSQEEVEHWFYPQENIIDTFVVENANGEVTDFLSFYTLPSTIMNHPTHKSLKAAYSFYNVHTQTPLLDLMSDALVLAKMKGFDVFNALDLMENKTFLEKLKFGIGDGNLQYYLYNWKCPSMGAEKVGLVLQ

P. falciparum NF54 = experiment: P. falciparum blood stage assay (SYBR Green); assay type: cell-based, Plasmodium falciparum; details: 72 h; for P. falciparum blood-stage development (parasite DNA level fluorescence): untreated = 129; for IC50: Plasmodium falciparum, NF54, ring-stage parasites, relative IC50
Protocol: To assess whether any of the PvNMTis developed here could qualify as TCP-1 candidates, we assessed the effect of each compound on blood-stage P. falciparum parasites, as there is currently no well-established in vitro platform for screening P. vivax blood-stage parasites. Synchronized P. falciparum NF54 ring-stage parasites were treated for 72 h with each compound at various concentrations, ranging from 0.625 µM to 10 µM, and parasite DNA replication was measured using a fluorescent DNA binding dye (SYBR Green).
Sorbitol-synchronized P. falciparum NF54 ring-stage parasites were cultured at a parasitemia of 0.5% and hematocrit of 1.5% in a 96-well microtiter plate. Parasites were treated with each NMT inhibitor compound at 0.625, 1.25, 2.5, 5, or 10 µM for 72 h. Direct lysis of the blood cells to release the parasite DNA was performed by adding 100 μl of LBS buffer containing SYBR green I DNA binding dye to each well. […] ICEstimator regression analysis (http://www.antimalarial-icestimator.net/) was used to obtain relative IC50 values for each compound.

PvNMT = PvNMT (Plasmodium vivax, UniProt A5K1A2); experiment: NMT activity assay (CPM detection of free CoA), PvNMT; details: for IC50: PvNMT IC50, mean of two or more determinations; for SI: enzyme selectivity, HsNMT IC50/PvNMT IC50
Sequence of PvNMT (A5K1A2 entry or part of it): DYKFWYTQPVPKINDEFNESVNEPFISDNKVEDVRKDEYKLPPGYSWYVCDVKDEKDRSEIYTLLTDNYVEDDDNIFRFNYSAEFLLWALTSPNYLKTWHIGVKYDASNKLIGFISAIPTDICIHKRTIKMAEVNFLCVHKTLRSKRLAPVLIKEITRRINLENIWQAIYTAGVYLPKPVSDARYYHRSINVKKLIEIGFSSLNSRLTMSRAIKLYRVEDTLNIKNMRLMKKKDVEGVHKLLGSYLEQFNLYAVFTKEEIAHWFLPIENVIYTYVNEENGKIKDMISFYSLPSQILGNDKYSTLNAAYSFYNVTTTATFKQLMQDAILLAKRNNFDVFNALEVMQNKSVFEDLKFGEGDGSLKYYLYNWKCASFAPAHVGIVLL

P. vivax schizonts = experiment: P. vivax liver stage assay, schizonts; assay type: cell-based, Plasmodium vivax; details: for Number of liverstage Schizonts per well: 20 µM, 8 dpi; for IC50: Plasmodium vivax, Hepatocyte, 120 h, primary human hepatocytes, treatment day 5 to 8 post-infection, isolates 2 and 3
Method in brief: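 Compound exposure ran days 5–8 post-infection with daily refeeding, dose-response up to 20 µM, MMV390048 at 20 µM as positive control. Host cells were single-lot primary human hepatocytes infected with freshly dissected P. vivax sporozoites; fixed cultures stained with anti-PvUIS4 and DAPI, schizonts quantified by confocal microscopy.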

P. vivax hypnozoites = experiment: P. vivax liver stage assay, hypnozoites; assay type: cell-based, Plasmodium vivax; details: for Hypnozoites per well: Isolate 2, replicate wells (Figure 6d); for Number of liverstage hypnozoites per well: 20 µM, 8 dpi; for IC50: Plasmodium vivax, Hepatocyte, 120 h, primary human hepatocytes, treatment day 5 to 8 post-infection, isolate 2
Protocol: Finally, we evaluated the NMT-binding compounds against non-developing P. vivax hypnozoites. […] (Fig. 6A). […] We, therefore, evaluated the impact of all tested compounds on P. vivax hypnozoites using these two isolates.
Plasmodium vivax liver stage assays were performed as described previously. Cryopreserved primary human hepatocytes (Cat No. F00995-P) and hepatocyte culture medium (HCM) (InVitroGroTM CP Medium) were obtained from Bioreclamation IVT, Inc., (Baltimore, MD, USA). Briefly, we seeded 384-well plates with primary hepatocytes from a single donor lot at a density of 25,000 cells per well. We then infected the hepatocytes with 14,000 freshly hand-dissected sporozoites per well. Cells were exposed to the compounds at indicated concentrations from day 5 post-infection. We used Pi4K inhibitor MMV390048, at 20 µM, as a positive control to eliminate P. vivax liver schizonts. We then proceeded to feed cultures every day, replacing the compounds until day 8 post-infection. Cells were fixed with 4% PFA, permeabilized with 1% Triton X-100, blocked with 2% BSA, and stained with DAPI and PvUIS4 antibodies to detect schizonts and hypnozoites forms by confocal microscopy. For antibody dilutions, PvUIS4 (kind gift from Dr. Noah Sather, Seattle Children’s Research Institute) was diluted 1:250 and the secondary antibody was anti-mouse AlexaFluor-594 (Cat # A-11005; RRID: AB_2534073) diluted 1:1000. DAPI was diluted 1:2000. The images were processed, analyzed and outlier cells were removed using IMARIS (Bitplane Inc.) image analysis software.

[1] = isolate 1, technical replicates (Fig. 5b)
[2] = isolate 2, technical replicates (Fig. 5b)
[3] = isolate 3, technical replicates (Fig. 5b)
[4] = isolate 1, technical replicates (Fig. 6C)
[5] = isolate 2, technical replicates (Fig. 6C)
[6] = isolate 3, technical replicates (Fig. 6C)

| Structure (SMILES) | IC50 (HsNMT1) | P. falciparum blood-stage development (parasite DNA level fluorescence) (P. falciparum NF54; 0.625 uM) | P. falciparum blood-stage development (parasite DNA level fluorescence) (P. falciparum NF54; 1.25 uM) | P. falciparum blood-stage development (parasite DNA level fluorescence) (P. falciparum NF54; 2.5 uM) | P. falciparum blood-stage development (parasite DNA level fluorescence) (P. falciparum NF54; 5 uM) | P. falciparum blood-stage development (parasite DNA level fluorescence) (P. falciparum NF54; 10 uM) | IC50 (P. falciparum NF54) | IC50 (PvNMT) | SI (PvNMT) | Number of liverstage Schizonts per well (P. vivax schizonts; [1]) | Number of liverstage Schizonts per well (P. vivax schizonts; [2]) | Number of liverstage Schizonts per well (P. vivax schizonts; [3]) | Schizonts per well (P. vivax schizonts; Isolate 2, 1.25 uM) | Schizonts per well (P. vivax schizonts; Isolate 2, 2.5 uM) | Schizonts per well (P. vivax schizonts; Isolate 2, 5 uM) | Schizonts per well (P. vivax schizonts; Isolate 3, 1.25 uM) | Schizonts per well (P. vivax schizonts; Isolate 3, 2.5 uM) | Schizonts per well (P. vivax schizonts; Isolate 3, 5 uM) | Schizonts per well (P. vivax schizonts; Isolate 3, 10 uM) | IC50 (P. vivax schizonts) | other results |
| --- | --- | --- | --- | --- | --- | --- | --- | --- | --- | --- | --- | --- | --- | --- | --- | --- | --- | --- | --- | --- | --- |
| c1cncc(CCOc2cccnc2-c2cccc(N3CCNCC3)c2)c1 [Compound 12g] | 15900 nM | 115 | 117.7 | 114.7 | 99.89 | 87.22 | 600 nM | 104 nM | 152.8 | 0 per well | 3 per well and 4 per well and 6 per well | 3 per well | 10 per well and 11 per well and 19 per well | 11 per well and 12 per well and 16 per well | 6 per well and 8 per well and 11 per well | 13 per well and 11 per well | 7 per well and 6 per well | 8 per well and 4 per well | 5 per well | 2200 to 3100 nM | Schizonts per well (P. vivax schizonts; Isolate 2, 20 uM (Fig. 5c-d)): 3 per well and 4 per well and 6 per well; Schizonts per well (P. vivax schizonts; Isolate 3, 20 uM (Fig. 5c-d)): 3 per well; schizonts (fold change to DMSO) mean diff (P. vivax schizonts; isolate 1, 20 µM): 1.000; schizonts (fold change to DMSO) mean diff (P. vivax schizonts; isolate 2, 20 µM): 0.7547; schizonts (fold change to DMSO) mean diff (P. vivax schizonts; isolate 3, 20 µM): 0.7955; Hypnozoites per well (P. vivax hypnozoites; 1.25 uM): 5 and 0 and 3; Hypnozoites per well (P. vivax hypnozoites; 2.5 uM): 3 and 4 and 0; Hypnozoites per well (P. vivax hypnozoites; 5 uM): 1 and 2 and 0; Hypnozoites per well (P. vivax hypnozoites; 10 uM): 1 and 0 (2×); Number of liverstage hypnozoites per well (P. vivax hypnozoites; [4]): 1 per well and 0 per well (2×); Number of liverstage hypnozoites per well (P. vivax hypnozoites; [5]): 1 per well and 0 per well (2×); Number of liverstage hypnozoites per well (P. vivax hypnozoites; [6]): 0 per well; Hypnozoites per well (P. vivax hypnozoites; 20 uM): 1 and 0 (2×); IC50 (P. vivax hypnozoites): 1200 nM; hypnozoites (fold change to DMSO) mean diff (P. vivax hypnozoites; isolate 1, 20 µM): 0.785; hypnozoites (fold change to DMSO) mean diff (P. vivax hypnozoites; isolate 2, 20 µM): 0.966 |
| c1cncc(CCOc2ccccc2-c2ccnc(N3CCNCC3)c2)c1 [Compound 12j] | 27400 nM | 106.8 | 108.9 | 108.6 | 101.9 | 74.22 | 1250 nM | 124 nM | 220.6 | 0 per well (2×) and 1 per well | 2 per well and 0 per well and 1 per well | 4 per well and 3 per well | 15 per well and 18 per well and 14 per well | 13 per well and 11 per well | 11 per well and 12 per well and 13 per well | 11 per well and 19 per well | 12 per well and 16 per well | 8 per well and 11 per well | 6 per well and 9 per well | 4900 to 6000 nM | Schizonts per well (P. vivax schizonts; Isolate 3, 20 uM (Fig. 5c-d)): 4 per well and 3 per well; schizonts (fold change to DMSO) mean diff (P. vivax schizonts; isolate 1, 20 µM): 0.983; schizonts (fold change to DMSO) mean diff (P. vivax schizonts; isolate 2, 20 µM): 0.9434; schizonts (fold change to DMSO) mean diff (P. vivax schizonts; isolate 3, 20 µM): 0.7614; Hypnozoites per well (P. vivax hypnozoites; 1.25 uM): 9 and 6 and 12; Hypnozoites per well (P. vivax hypnozoites; 2.5 uM): 13 and 12 and 8; Hypnozoites per well (P. vivax hypnozoites; 5 uM): 19 and 3 and 13; Hypnozoites per well (P. vivax hypnozoites; 10 uM): 13 and 10; Number of liverstage hypnozoites per well (P. vivax hypnozoites; [4]): 0 per well (2×) and 3 per well; Number of liverstage hypnozoites per well (P. vivax hypnozoites; [5]): 0 per well (2×) and 3 per well; Number of liverstage hypnozoites per well (P. vivax hypnozoites; [6]): 0 per well; Hypnozoites per well (P. vivax hypnozoites; 20 uM): 0 (2×) and 3; IC50 (P. vivax hypnozoites): 12000 nM; hypnozoites (fold change to DMSO) mean diff (P. vivax hypnozoites; isolate 1, 20 µM): 0.985; hypnozoites (fold change to DMSO) mean diff (P. vivax hypnozoites; isolate 2, 20 µM): 0.897 |
| Fc1ccc(-c2ccnc(N3CCNCC3)c2)c(OCCc2cccnc2)c1 [Compound 12l] | 1710 nM | 110.1 | 110.9 | 110.4 | 99.67 | 86.75 | 370 nM | 23.4 nM | 73 | 0 per well (2×) and 1 per well | 4 per well and 7 per well and 1 per well | 2 per well and 7 per well | 11 per well and 13 per well and 18 per well | 11 per well and 12 per well | 6 per well and 8 per well and 9 per well | 12 per well and 19 per well | 8 per well and 16 per well | 7 per well and 13 per well | 5 per well and 9 per well | 2900 to 4700 nM | schizonts (fold change to DMSO) mean diff (P. vivax schizonts; isolate 1, 20 µM): 0.983; schizonts (fold change to DMSO) mean diff (P. vivax schizonts; isolate 2, 20 µM): 0.7736; schizonts (fold change to DMSO) mean diff (P. vivax schizonts; isolate 3, 20 µM): 0.6932; Hypnozoites per well (P. vivax hypnozoites; 1.25 uM): 5 and 8 and 2; Hypnozoites per well (P. vivax hypnozoites; 2.5 uM): 6 and 4 and 1; Hypnozoites per well (P. vivax hypnozoites; 5 uM): 5 and 7 and 0; Hypnozoites per well (P. vivax hypnozoites; 10 uM): 1 and 14 and 0; Number of liverstage hypnozoites per well (P. vivax hypnozoites; [4]): 0 per well (2×) and 5 per well; Number of liverstage hypnozoites per well (P. vivax hypnozoites; [5]): 0 per well (2×) and 5 per well; Number of liverstage hypnozoites per well (P. vivax hypnozoites; [6]): 0 per well; Hypnozoites per well (P. vivax hypnozoites; 20 uM): 0 (2×) and 5; IC50 (P. vivax hypnozoites): 2100 nM; hypnozoites (fold change to DMSO) mean diff (P. vivax hypnozoites; isolate 1, 20 µM): 1.000; hypnozoites (fold change to DMSO) mean diff (P. vivax hypnozoites; isolate 2, 20 µM): 0.828 |
